Data taken from patent US20220296565A1, “Pharmaceutical compositions of Ovatodiolide and the use thereof” (priority 2019, published 2022).

Columns and labels:
[1] = test system: K87 primary skin fibroblast cells; test: MTT assay, K87 fibroblasts; assay type: cell-based, human; details: 72 h
Description: (§1) The MTT assay is a colorimetric assay widely used to study cell viability. It is based on the ability of NAD(P)H-dependent cellular oxidoreductase enzymes to reduce the MTT tetrazolium dye. The cells were treated with 0, 5, 10, 20 & 40 μM of OVT & AA for 72 h and then MTT was added and cytotoxicity was analyzed by a plate reader.
(§2) HPV-positive cervical cancer cells, SiHa, Hela cells, patient-derived HPV positive head and neck cancer cells and non-cancer human fibroblasts were treated with OVT at the dose range of 0, 5, 10, 20 and 40 μM and subjected to MTT assay and IC50 values were determined.

[2] = test system: SiHa cells; test: Activated caspase-3 by flow cytometry; assay type: cell-based, human
Description: SiHa cells were treated with 0, 20 & 40 μM AA or OVT or solvent control for 24 & 48 h. Activated caspase-3 in cells was labeled with phyco-erythrin-conjugated antibody according to manufacturer's protocol (PE Active Caspase-3 Apoptosis Kit; BD Pharmingen, San Diego, Calif.) and analyzed by FACSCalibur flow cytometer (FL-2, FSC, BD Pharmingen).
We then incubated the cells with 0, 20 & 40 μM AA & OVT 24 and 48 hours, and determined the percentage of cells that contained activated caspase-3 as a measure of apoptosis.

[3] = test system: UT-SCC 69 patient derived HPV positive Head and Neck cancer cells; test: MTT assay, UT-SCC 69; assay type: cell-based, human; details: UT-SCC 69, 72 h
Description: as §1, §2

[4] = test system: K74 primary skin fibroblast cells; test: MTT assay, K74 fibroblasts; assay type: cell-based, human; details: 72 h
Description: as §1, §2

[5] = test system: SiHa HPV 16 positive cervical cancer cells; test: MTT assay, SiHa cells; assay type: cell-based, human; details: 72 h
Description: (§3) SiHa and HeLa cervical cancer cells and Human Dermal Fibroblasts (HDF) were cultured in DMEM (Sigma-Aldrich, St Louis, Mo., USA). The medium was supplemented with 10% fetal calf serum (BioClear, Wiltshire, UK), 2 mM L-glutamin, 100 U/ml penicillin, 100 μg/ml streptomycin (Sigma-Aldrich).
as §1, §2

[6] = test system: SiHa cells; test: Western blotting of SiHa cell lysates; assay type: cell-based, human
Description: Whole cell lysates were prepared by lysing the cells in Laemmli sample buffer (Laemmli, 1970) and boiling the samples for 10 min after which proteins were separated in 12.5-15% SDS-PAGE. Western blotting was performed using antibodies against caspase 3 (Cell Signaling), HPV16 E6, E7 (Santa Cruz Biotechnology, Inc, Santa Cruz, Calif.), and […] (clone AC-40; Sigma-Aldrich). Horseradish peroxidase-conjugated secondary antibodies were obtained from Southern Biotechnology Associates (Birmingham, Ala.), Promega (Madison, Wis.) and Amersham Biosciences (Freiburg, Germany). The results were visualized using the ECL method (Amersham Biosciences) on X-ray film. The presented Western blot results are representative of at least three independent experiments. SiHa cervical cancer cells have been transformed by high-risk human papillomavirus (HPV). As E6 and E7 play such critical roles in SiHa cell transformation, the expression of these viral proteins was examined.

[7] = test system: UT-SCC 65 patient derived HPV positive Head and Neck cancer cells; test: MTT assay, UT-SCC 65; assay type: cell-based, human; details: UT-SCC 65, 72 h
Description: as §1, §2

[8] = test system: HeLa HPV 18 positive cervical cancer cells; test: MTT assay, HeLa cells; assay type: cell-based, human; details: 72 h
Description: as §3, §1, §2

[9] = test system: UT-SCC 60A patient derived HPV positive Head and Neck cancer cells; test: MTT assay, UT-SCC 60A; assay type: cell-based, human; details: 72 h
Description: as §1, §2

[10] = test system: HeLa cells; test: Cell-IQ high content imaging, proliferation of HeLa; assay type: cell-based, human; details: various doses, till 72 h
Description: (§4) SiHa cells—HPV 16 positive cervical cancer cell line; HeLa—HPV 18 positive cervical cancer cell line. […] Numbers 1-6 on the x-axis indicate 12 h intervals. The area of the plate that cells cover is indicated on the y-axis (arbitrary number of units).
(§5) The Cell-IQ Real-time imaging provides information on how the compounds are affecting cell morphology and cell proliferation at various doses up to 72 h. A rigorous image analysis protocol was developed to assess the effects of the compounds on cell proliferation.
(§6) The cells were imaged by high content imaging in Cell-IQ and the proliferation of the cells was observed till 72 h.

[11] = test system: SiHa cells; test: Phase contrast microscopy of SiHa cells; assay type: cell-based, human; details: 40 μM
From the text: In order to examine the mechanism underlying the previously reported cytotoxicity of OVT, we investigated if OVT would induce apoptotic death of cultured SiHa cervical cancer cells.

[12] = test system: UT-SCC 60B patient derived HPV positive Head and Neck cancer cells; test: MTT assay, UT-SCC 60B; assay type: cell-based, human; details: 72 h
Description: as §1, §2

[13] = test system: UT-SCC 102 patient derived HPV positive Head and Neck cancer cells; test: MTT assay, UT-SCC 102; assay type: cell-based, human; details: UT-SCC 102, 72 h
Description: as §1, §2

[14] = test system: SiHa cells; test: Cell-IQ high content imaging, proliferation of SiHa; assay type: cell-based, human; details: various doses, till 72 h
Description: as §4, §5, §6

[15] = test system: non-cancer human fibroblast cells; test: MTT assay, non-cancer human fibroblasts; assay type: cell-based; details: 72 h
Description: as §1, §2

Ovatodiolide was tested, and the IC50 [1] was 19.7 µM, the “activation of caspase-3” value ([2]; 20 μM, after 24 h, compared with 40 μM AA after 48 h) was “higher activation” and the “activation of caspase-3 compared to AA at the same concentration” value ([2]; 40 μM, after 48 h) was “almost doubled”. For the same compound, the IC50 [3] was 0.859 µM, the IC50 [4] was 13.2 µM and the IC50 [5] was 10.7 µM. For the same compound, the “cleavage of caspase-3” value ([6]; 20-40 μM) was “induced the cleavage”, the “HPV E6 and E7 viral proteins” value ([6]; Western blot) was “downregulation” and the cIAP2 protein level ([6]; Western blot) was “downregulation”. The IC50 [7] was 14.1 µM, the IC50 [8] was 10.7 µM and the IC50 [9] was 5.53 µM. For the same compound, the cell proliferation [10] was “inhibited the cell proliferation”, the “cell death in SiHa cells” value [11] was “induced cell death” and the “effect on cell morphology” value ([11]; 72 hours, SiHa) was “clear effect on cell morphology”. For the same compound, the IC50 [12] was 3.33 µM, the IC50 [13] was 7.73 µM and the cell proliferation [14] was “inhibited the cell proliferation”.
For C=C1C(=O)OC2/C=C(/C)CC/C=C(\C(=O)O)CC/C=C(\C)CCC12 (stereo not drawn) [Anisomelic acid (AA), Anisomelic acid, reference compound], the “activation of caspase-3” value ([2]; 40 μM, after 48 h) was “marked activation”, the IC50 [3] was 23.9 µM and the IC50 [5] was 32.1 µM. For the same compound, the IC50 [7] was 42.8 µM, the IC50 [8] was 33.2 µM and the IC50 [9] was 18 µM. For the same compound, the “toxicity to non-cancer human fibroblast cells” value [15] was “not toxic at all”, the IC50 [12] was 22.8 µM and the IC50 [13] was 28.2 µM.
